{"source": "paper PMC9841525", "about": "“Chemical Blockage of the Mitochondrial Rhomboid Protease PARL by Novel Ketoamide Inhibitors Reveals Its Role in PINK1/Parkin-Dependent Mitophagy” (Journal of Medicinal Chemistry, 2022)", "key": {"PINK1": {"tested_on": "PINK1", "experiment": "PINK1 processing in HEK293 T-REx cells overexpressing PINK1, immunoblot", "format": "cell-based, human", "settings": "HEK293 T-REx cells overexpressing PINK1, 8 h", "procedure": "Inducible stable Flp-In HEK293 T-REx cells expressing PINK1 were described previously.[33] HEK293 T-REx PINK1 and HEK293T cells were grown in DMEM (Gibco) supplemented with 10% (v/v) fetal bovine serum (ThermoFisher), 1% (v/v) GlutaMAX (Gibco), 1% (v/v) sodium pyruvate (Gibco), 125 μg/mL hygromycin (Invitrogen), and 10 μg/mL blasticidin (Gibco) or DMEM supplemented with 10% (v/v) fetal bovine serum, respectively, at 37 °C in 5% (v/v) CO2. For microscopy, cells were seeded on poly-L-lysine (Sigma)-coated slides. Transient plasmid transfections were performed using 25 kDa linear polyethylenimine (Polysciences). Plasmid (100 ng) encoding HA-Parkin-IRES-GFP, mito-mCherry or Parkin-mEGFP, or 500 ng plasmid encoding PGAM5-FLAG were used per 6-well. Total transfected DNA was 2 μg/well. For siRNA transfection, 2 × 10^5 cells were seeded per 6-well and on the next day transfected with 20 nM siRNA-oligonucleotide using lipofectamine RNAiMAX (ThermoFisher). Cells were analyzed 27 h post-transfection or five days post-siRNA-transfection. HEK293 T-REx PINK1 cells were induced with 0.3 μg/mL doxycycline for 24 h before further processing. […] For quantification, ImageJ was used (http://rsb.info.nih.gov/ij/). Immunoblots shown are representative of at least three independent experiments and were evaluated using Excel and GraphPad Prism 9 (GraphPad Software, Inc.)."}, "PARL": {"molecular_target": "T1, PARL (Homo sapiens, UniProt Q9H300)", "T1 sequence (Q9H300 53-379)": "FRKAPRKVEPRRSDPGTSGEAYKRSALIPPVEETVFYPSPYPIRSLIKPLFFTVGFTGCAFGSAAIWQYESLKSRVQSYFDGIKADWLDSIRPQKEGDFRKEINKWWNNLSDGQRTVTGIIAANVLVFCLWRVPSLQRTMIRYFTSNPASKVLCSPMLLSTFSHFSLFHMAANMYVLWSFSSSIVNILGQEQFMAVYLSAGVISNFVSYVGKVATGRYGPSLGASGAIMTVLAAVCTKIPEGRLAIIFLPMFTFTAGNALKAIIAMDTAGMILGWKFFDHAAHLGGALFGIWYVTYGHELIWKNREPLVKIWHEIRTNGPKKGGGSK", "experiment": "PARL inhibition assay in cells: cleavage of overexpressed PGAM5-Myc by tetracycline-induced PARL-FLAG, immunoblot", "format": "cell-based", "parameters": "expressed in transfected cells; host or cells: Flp-In HEK293 T-REx PARL knockout cells", "procedure": "PARL inhibition assays in cells were carried out in Flp-In HEK293 T-REx PARL knockout cells stably transfected with tetracycline inducible PARL-FLAG grown in DMEM (Gibco) supplemented with 10% (v/v) tetracycline-free fetal bovine serum (Clontech). For the inhibition assay, 0.7 × 10^6 cells were seeded per well of a 6-well plate, and the next day transfected with 5 μg of human PGAM5-Myc in pcDNA and 15 μg of branched polyethylenimine (Polysciences) per well. Four hours after transfection, the PARL expression was induced by adding tetracycline to 1 μg/mL. Eight hours after transfection, the inhibitors were added to each well in different concentrations in serum-free DMEM with 1% DMSO.\nFor immunoblot analysis of the effects of PARL inhibitors on PGAM5 cleavage, after overnight incubation with inhibitors, cells from each well were harvested in 1× SDS sample buffer containing 20 mM MgCl2 and Pierce universal nuclease (250 U/mL, Thermo Scientific) and heated to 65 °C for 10 min. Loading volumes for SDS-PAGE were adjusted by measuring total protein concentration in the lysates with Pierce 660 nm Protein Assay Reagent and Ionic Detergent Compatibility Reagent for Pierce 660 nm Protein Assay Reagent (Thermo Scientific). Samples were resolved by SDS-PAGE using a 12% polyacrylamide gel (Biorad) and electrotransferred onto an Immobilon PVDF membrane (Merck Millipore). Blots were blocked using casein blocker (Thermo Scientific) and hPGAM5 was labeled by rabbit anti-Myc antibody (Cell Signaling Technology, cat. #2278, dilution 1:1000) at 4 °C overnight. Blots were washed three times with TBS-T and incubated with IRDye 800 CW donkey anti-rabbit antibody (Invitrogen, cat. #SA5-10044, dilution 1:10,000) at room temperature for 2 h. Membranes were then again washed three times with TBS-T and one time with TBS. Fluorescence emission at […] of dried membranes was scanned on Odyssey CLx (LI-COR). Cleavage efficiency and inhibition were analyzed as described[23] using Image Studio Lite (LI-COR), Excel (Microsoft) and GraphPad Prism 9 (GraphPad Software, Inc.)."}}, "note": "*1 amine or outer side, *2 acyl side, *3 side chain or, on linkers, in order; H or OH if unused. Where a SMILES comes first, the peptide text is derived from it. [ ]: non-standard residue; d: D form. The star is where a group is joined. NH(4-phenylbutyl) = c1ccc(CCCCN*)cc1; X1 = C[C@H](N[*:1])C(=O)C(=O)[*:2]"}
{"smiles": "CC(=O)N[C@@H](C)C(=O)N[C@H](C(=O)N[C@@H](Cc1ccccc1)C(=O)N[C@@H](CC(C)C)C(=O)N[C@@H](C)C(=O)C(=O)NCCCCc1ccccc1)C(C)C", "note": "[compound 5] (Ac-AVFL[X1]-{NH(4-phenylbutyl)})", "values": [{"measurement": "Effect on cleavage and stabilization of overexpressed PINK1", "setting": "PINK1", "result": "dose-dependent stabilization of PINK1–66"}, {"measurement": "Effect on cleavage and stabilization of overexpressed PINK1", "setting": "PINK1; listed as Compound 5", "result": "inhibits the PARL-cleavage of overexpressed PINK1 in a dose-dependent manner"}, {"measurement": "IC50", "setting": "PARL; Flp-In HEK293 T-REx PARL KO cells with inducible PARL-FLAG, PGAM5-Myc, mean ± SEM of four or three experiments, read-out: Apparent IC50, PGAM5 cleavage by overexpressed PARL", "result": 410, "unit": "nM"}, {"measurement": "Fold better than compound 6 in cells", "setting": "PARL; ratio of apparent IC50 values, compound 5 vs compound 6", "result": "about 8 fold"}]}
